Laboratory results taken from the NIST ThermoML archive (doi:10.1021/je200721d).
Numbers after ± are expanded uncertainties.

Test: xn = mol fraction of the nth substance listed
Settings: Liquid, Vibrating tube method

CCCCCCCC [octane] + CCCCCC
Settings | mass density [kg/m3]
342.99 K, 19000 kPa, x2 = 0.1654 | 676.86 ± 0.42
342.99 K, 20000 kPa, x2 = 0.1654 | 677.79 ± 0.43
342.99 K, 21000 kPa, x2 = 0.1654 | 678.7 ± 0.44
342.99 K, 22000 kPa, x2 = 0.1654 | 679.59 ± 0.45
342.99 K, 23000 kPa, x2 = 0.1654 | 680.47 ± 0.46
342.99 K, 24000 kPa, x2 = 0.1654 | 681.32 ± 0.47
342.99 K, 25000 kPa, x2 = 0.1654 | 682.14 ± 0.48
343 K, 1000 kPa, x2 = 0.7995 | 627.89 ± 0.28
343 K, 2000 kPa, x2 = 0.7995 | 629.27 ± 0.29
343 K, 3000 kPa, x2 = 0.7995 | 630.64 ± 0.3
343 K, 4000 kPa, x2 = 0.7995 | 632.01 ± 0.3
343 K, 5000 kPa, x2 = 0.7995 | 633.35 ± 0.31
343 K, 6000 kPa, x2 = 0.7995 | 634.69 ± 0.32
343 K, 7000 kPa, x2 = 0.7995 | 636.02 ± 0.33
343 K, 8000 kPa, x2 = 0.7995 | 637.32 ± 0.34
343 K, 9000 kPa, x2 = 0.7995 | 638.61 ± 0.35
343 K, 10000 kPa, x2 = 0.7995 | 639.87 ± 0.36
343 K, 11000 kPa, x2 = 0.7995 | 641.1 ± 0.37
343 K, 12000 kPa, x2 = 0.7995 | 642.32 ± 0.38
343 K, 13000 kPa, x2 = 0.7995 | 643.52 ± 0.39
343 K, 14000 kPa, x2 = 0.7995 | 644.7 ± 0.4
343 K, 15000 kPa, x2 = 0.7995 | 645.87 ± 0.41
343 K, 16000 kPa, x2 = 0.7995 | 647.01 ± 0.42
343 K, 17000 kPa, x2 = 0.7995 | 648.12 ± 0.43
343 K, 18000 kPa, x2 = 0.7995 | 649.21 ± 0.44
343 K, 19000 kPa, x2 = 0.7995 | 650.28 ± 0.45
343 K, 20000 kPa, x2 = 0.7995 | 651.33 ± 0.46
343 K, 21000 kPa, x2 = 0.7995 | 652.33 ± 0.47
343 K, 22000 kPa, x2 = 0.7995 | 653.33 ± 0.48
343 K, 23000 kPa, x2 = 0.7995 | 654.3 ± 0.49
343 K, 24000 kPa, x2 = 0.7995 | 655.24 ± 0.5
343 K, 25000 kPa, x2 = 0.7995 | 656.16 ± 0.52
352.79 K, 1000 kPa, x2 = 0.5749 | 631.4 ± 0.28
352.79 K, 2000 kPa, x2 = 0.5749 | 632.83 ± 0.28
352.79 K, 3000 kPa, x2 = 0.5749 | 634.2 ± 0.29
352.79 K, 4000 kPa, x2 = 0.5749 | 635.57 ± 0.3
352.79 K, 5000 kPa, x2 = 0.5749 | 636.95 ± 0.31
352.79 K, 6000 kPa, x2 = 0.5749 | 638.3 ± 0.32
352.79 K, 7000 kPa, x2 = 0.5749 | 639.63 ± 0.33
352.79 K, 8000 kPa, x2 = 0.5749 | 640.97 ± 0.34
352.79 K, 9000 kPa, x2 = 0.5749 | 642.26 ± 0.35
352.79 K, 10000 kPa, x2 = 0.5749 | 643.53 ± 0.36
352.79 K, 11000 kPa, x2 = 0.5749 | 644.82 ± 0.37
352.79 K, 12000 kPa, x2 = 0.5749 | 646.04 ± 0.38
352.79 K, 13000 kPa, x2 = 0.5749 | 647.27 ± 0.39
352.79 K, 14000 kPa, x2 = 0.5749 | 648.46 ± 0.4
352.79 K, 15000 kPa, x2 = 0.5749 | 649.66 ± 0.41
352.79 K, 16000 kPa, x2 = 0.5749 | 650.79 ± 0.42
352.79 K, 17000 kPa, x2 = 0.5749 | 651.95 ± 0.43
352.79 K, 18000 kPa, x2 = 0.5749 | 653.02 ± 0.44
352.79 K, 19000 kPa, x2 = 0.5749 | 654.11 ± 0.45
352.79 K, 20000 kPa, x2 = 0.5749 | 655.18 ± 0.45
352.79 K, 21000 kPa, x2 = 0.5749 | 656.24 ± 0.46
352.79 K, 22000 kPa, x2 = 0.5749 | 657.22 ± 0.47
352.79 K, 23000 kPa, x2 = 0.5749 | 658.23 ± 0.48
352.79 K, 24000 kPa, x2 = 0.5749 | 659.22 ± 0.5
352.79 K, 25000 kPa, x2 = 0.5749 | 660.15 ± 0.51
352.85 K, 1000 kPa, x2 = 0.2199 | 646.75 ± 0.27
352.85 K, 2000 kPa, x2 = 0.2199 | 648.04 ± 0.28
352.85 K, 3000 kPa, x2 = 0.2199 | 649.32 ± 0.28
352.85 K, 4000 kPa, x2 = 0.2199 | 650.6 ± 0.29
352.85 K, 5000 kPa, x2 = 0.2199 | 651.87 ± 0.3
352.85 K, 6000 kPa, x2 = 0.2199 | 653.11 ± 0.31
352.85 K, 7000 kPa, x2 = 0.2199 | 654.35 ± 0.32
352.85 K, 8000 kPa, x2 = 0.2199 | 655.57 ± 0.33
352.85 K, 9000 kPa, x2 = 0.2199 | 656.79 ± 0.34
352.85 K, 10000 kPa, x2 = 0.2199 | 657.97 ± 0.35
352.85 K, 11000 kPa, x2 = 0.2199 | 659.16 ± 0.35
352.85 K, 12000 kPa, x2 = 0.2199 | 660.32 ± 0.36
352.85 K, 13000 kPa, x2 = 0.2199 | 661.45 ± 0.37
352.85 K, 14000 kPa, x2 = 0.2199 | 662.57 ± 0.38
352.85 K, 15000 kPa, x2 = 0.2199 | 663.67 ± 0.39
352.85 K, 16000 kPa, x2 = 0.2199 | 664.74 ± 0.4
352.85 K, 17000 kPa, x2 = 0.2199 | 665.8 ± 0.41
352.85 K, 18000 kPa, x2 = 0.2199 | 666.83 ± 0.42
352.85 K, 19000 kPa, x2 = 0.2199 | 667.85 ± 0.43
352.85 K, 20000 kPa, x2 = 0.2199 | 668.84 ± 0.44
352.85 K, 21000 kPa, x2 = 0.2199 | 669.8 ± 0.45
352.85 K, 22000 kPa, x2 = 0.2199 | 670.75 ± 0.46
352.85 K, 23000 kPa, x2 = 0.2199 | 671.68 ± 0.47
352.85 K, 24000 kPa, x2 = 0.2199 | 672.59 ± 0.48
352.85 K, 25000 kPa, x2 = 0.2199 | 673.48 ± 0.49
352.91 K, 1000 kPa, x2 = 0.1654 | 648.87 ± 0.27
352.91 K, 1000 kPa, x2 = 0.9308 | 609.77 ± 0.28
352.91 K, 2000 kPa, x2 = 0.1654 | 650.15 ± 0.28
352.91 K, 2000 kPa, x2 = 0.9308 | 611.36 ± 0.29
352.91 K, 3000 kPa, x2 = 0.1654 | 651.43 ± 0.28
352.91 K, 3000 kPa, x2 = 0.9308 | 612.95 ± 0.3
352.91 K, 4000 kPa, x2 = 0.1654 | 652.68 ± 0.29
352.91 K, 4000 kPa, x2 = 0.9308 | 614.51 ± 0.31
352.91 K, 5000 kPa, x2 = 0.1654 | 653.95 ± 0.3
352.91 K, 5000 kPa, x2 = 0.9308 | 616.06 ± 0.32
352.91 K, 6000 kPa, x2 = 0.1654 | 655.19 ± 0.31
352.91 K, 6000 kPa, x2 = 0.9308 | 617.57 ± 0.33
